Laboratory results as given in patent US8173711B2, “Agent for relief or prevention of xerostomia” (Kaneka Corporation, priority 2007, dated 2012).
Marks after values point to notes of the source that are not given here.

Legend:
[1] = system: xerostomia (dry mouth) outpatients; assay: Saxon test, amount of secreted saliva, coenzyme Q10 capsule intake in patients with xerostomia; type: in vivo, human; conditions: for Amount of secreted saliva, Increased amount: difference after minus before one-month intake; for Amount of secreted saliva, After intake / Amount of secreted saliva, Before intake: group average; for Amount of secreted saliva, After intake: after one 100 mg capsule every day for one month; for Amount of secreted saliva, Before intake: before intake of one 100 mg capsule every day for one month
Experimental: A test subject chews a piece of gauze for 2 minutes. The weight of the gauze piece has been measured in advance. After the 2-minute chewing, the weight of the gauze is measured. An amount of secreted saliva is calculated as a difference between the weights of the gauze piece before and after the 2-minute chewing.
In total 23 xerostomia (dry mouth) outpatients (23 females including 21 Sjogren syndrome patients) were divided into three groups. To one group consisting of 9 patients, one oxidized coenzyme Q10-containing capsule having the composition illustrated in Table 1 (Test food 1, 240 mg per capsule) was administered every day for one month. To another group consisting of another 9 patients, one reduced coenzyme Q10-containing capsule having the composition shown in Table 1 (Test food 2, 240 mg per capsule) was administered every day for one month. The amount of secreted saliva was measured for each group before and after the intake. To the other group consisting of remaining 5 patients, one placebo capsule (Control food, 240 mg per capsule) was administered every day for one month. The amount of secreted saliva was similarly measured before and after the intake.
(§1) The amount of secreted saliva was measured by Saxon test. Namely, a test subject chewed a piece of gauze for 2 minutes. The weight of the gauze piece had been measured in advance. After the 2-minute chewing, the weight of the gauze piece was measured. The amount of secreted saliva was calculated as a difference between the weights of the gauze piece before and after the 2-minute chewing. In the present example, those whose amount of secreted saliva measured by Saxon test was 2.0 g/2 min. or less were determined as xerostomia patients, and those whose amount of secreted saliva was more than that were determined as healthy persons. Tables 2 and 3 illustrate the average values of all subjects of each group.

healthy persons = assay: Saxon test, amount of secreted saliva, coenzyme Q10 capsule intake in healthy persons; type: in vivo, human; conditions: for Amount of secreted saliva, Increased amount: difference after minus before one-month intake; for Amount of secreted saliva, After intake / Amount of secreted saliva, Before intake: group average; for Amount of secreted saliva, After intake: after one 100 mg capsule every day for one month; for Amount of secreted saliva, Before intake: before intake of one 100 mg capsule every day for one month; for Significant or excessive increase of secreted saliva before versus after intake: one capsule every day for one month
Experimental: as §1
In total, 57 healthy persons (12 males, 45 females) were collected as volunteers. One oxidized coenzyme Q10-containing capsule having the composition illustrated in Table 1 (Test food 1, 240 mg per capsule) was administered every day for one month to a group consisting of 22 healthy persons (5 males, 17 females), and one reduced coenzyme Q10-containing capsule having the composition illustrated in Table 1 (Test food 2, 240 mg per capsule) was administered every day for one month to another group consisting of 22 healthy persons (5 males, 17 females). The amount of secreted saliva was measured for each group before and after the intake by the same procedure as that in Example 1. To remaining 13 healthy persons (2 males, 11 females), one placebo capsule (Control food, 240 mg per capsule) was administered every day for one month. The amount of secreted saliva was measured before and after the intake.

[2] = system: Parkinson's disease model mice; conditions: Non-Patent Document 2; cited from earlier work
rats = conditions: 52 consecutive weeks, 1.2 g/kg/day; cited from earlier work

COC1=C(OC)C(=O)C(C/C=C(\C)CC/C=C(\C)CC/C=C(\C)CC/C=C(\C)CC/C=C(\C)CC/C=C(\C)CC/C=C(\C)CC/C=C(\C)CC/C=C(\C)CCC=C(C)C)=C(C)C1=O [Oxidized coenzyme Q10]
Amount of secreted saliva, Increased amount [1]: 0.59 g/2 min.
Amount of secreted saliva, After intake [1]: 1.28* g/2 min.
Amount of secreted saliva, After intake ([1]; listed as oxidized coenzyme Q10): 1.28 g/2 min.
Amount of secreted saliva, Before intake [1]: 0.69 g/2 min.
Amount of secreted saliva, Increased amount (healthy persons): 0.43 g/2 min.
Amount of secreted saliva, After intake (healthy persons): 6.16 g/2 min.
Amount of secreted saliva, Before intake (healthy persons): 5.73 g/2 min.
Significant or excessive increase of secreted saliva before versus after intake (healthy persons): None of the oxidized coenzyme Q10 capsule administration group, the reduced coenzyme Q10 capsule administration group and the placebo capsule administration group showed a significant or excessive increase

COc1c(O)c(C)c(C/C=C(\C)CC/C=C(\C)CC/C=C(\C)CC/C=C(\C)CC/C=C(\C)CC/C=C(\C)CC/C=C(\C)CC/C=C(\C)CC/C=C(\C)CCC=C(C)C)c(O)c1OC [Reduced coenzyme Q10]
Amount of secreted saliva, Increased amount [1]: 0.70 g/2 min.
Amount of secreted saliva, Increased amount ([1]; listed as reduced coenzyme Q10): 0.7 g/2 min.
Amount of secreted saliva, After intake [1]: 1.52* g/2 min.
Amount of secreted saliva, After intake ([1]; listed as reduced coenzyme Q10): 1.52 g/2 min.
Amount of secreted saliva, Before intake [1]: 0.82 g/2 min.
Comparison of salivary secretion-increasing effect ([1]; reduced versus oxidized coenzyme Q10 capsule): higher effects than oxidized coenzyme Q10
Amount of secreted saliva, Increased amount (healthy persons): 0.10 g/2 min.
Amount of secreted saliva, After intake (healthy persons): 3.54 g/2 min.
Amount of secreted saliva, Before intake (healthy persons): 3.44 g/2 min.
Significant or excessive increase of secreted saliva before versus after intake (healthy persons): None of the oxidized coenzyme Q10 capsule administration group, the reduced coenzyme Q10 capsule administration group and the placebo capsule administration group showed a significant or excessive increase

ubiquinone [Oxidized coenzyme Q]
Effect on conditions of Parkinson's disease model mice [2]: effects to improve conditions
Toxicity (rats): no evidence of toxicity
